Source: paper PMC6576746, “Rational discovery of dual-indication multi-target PDE/Kinase inhibitor for precision anti-cancer therapy using structural systems pharmacology” (PLoS Computational Biology, 2019)

Assays:
Assay in all cases: biochemical
Design in all cases: DiscoverX KinomeScan competition binding assay across human kinases; per cent of control at 10 and 100 uM
ADCK4 = molecular target: T1, ADCK4 (Homo sapiens, UniProt Q96D53); conditions: competition binding, % of control; read-out: Percent Control (100 uM Levosimendan)
T1 construct: gene COQ8B
Method in brief: (§1)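 Binding is expressed as %control, normalised between positive and negative control signals. The compound (levosimendan) was tested at 10 μM and 100 μM in the DiscoverX KinomeScan competition binding format against human kinases.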

ALK = ALK (Homo sapiens, UniProt Q9UM73); conditions: competition binding, % of control; read-out: Percent Control (100 uM Levosimendan)
Method in brief: as §1

ARK5 = molecular target: T2, ARK5 (Homo sapiens, UniProt O60285); conditions: competition binding, % of control; read-out: Percent Control (100 uM Levosimendan)
T2 construct: gene NUAK1
Method in brief: as §1

ASK1 = molecular target: T3, ASK1 (Homo sapiens, UniProt Q99683); conditions: competition binding, % of control; read-out: Percent Control (100 uM Levosimendan)
T3 construct: gene MAP3K5
Method in brief: as §1

BMPR1B = BMPR1B (Homo sapiens, UniProt O00238); conditions: competition binding, % of control
BMPR1B, sequence (O00238 whole entry): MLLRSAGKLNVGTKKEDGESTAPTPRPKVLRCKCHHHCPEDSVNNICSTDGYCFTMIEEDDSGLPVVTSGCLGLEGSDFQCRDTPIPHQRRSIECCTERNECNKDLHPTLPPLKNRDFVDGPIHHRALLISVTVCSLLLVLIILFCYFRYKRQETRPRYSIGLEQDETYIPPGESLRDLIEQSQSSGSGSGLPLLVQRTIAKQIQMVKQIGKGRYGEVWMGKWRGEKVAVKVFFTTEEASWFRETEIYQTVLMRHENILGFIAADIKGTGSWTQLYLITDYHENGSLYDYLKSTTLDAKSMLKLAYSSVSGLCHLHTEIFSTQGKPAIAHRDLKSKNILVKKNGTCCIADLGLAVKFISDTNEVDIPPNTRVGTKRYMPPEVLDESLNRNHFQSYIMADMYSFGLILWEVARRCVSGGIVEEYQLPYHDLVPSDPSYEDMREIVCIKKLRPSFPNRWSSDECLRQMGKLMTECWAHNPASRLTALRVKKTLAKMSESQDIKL
Method in brief: as §1

BMPR2 = BMPR2 (Homo sapiens, UniProt Q13873); conditions: competition binding, % of control; read-out: Percent Control (100 uM Levosimendan)
Method in brief: as §1

CAMKK2 = CAMKK2 (Homo sapiens, UniProt Q96RR4); conditions: competition binding, % of control; read-out: Percent Control (100 uM Levosimendan)
Method in brief: as §1

CDC2L1 = molecular target: T4, CDC2L1 (Homo sapiens, UniProt P21127); conditions: competition binding, % of control; read-out: Percent Control (100 uM Levosimendan)
T4 construct: gene CDK11B
Method in brief: as §1

EGFR(E746-A750del) = EGFR(E746-A750del) (Homo sapiens, UniProt P00533, DEL746-750); conditions: competition binding, % of control; read-out: Percent Control (100 uM Levosimendan)
Method in brief: as §1

FLT4 = FLT4 (Homo sapiens, UniProt P35916); conditions: competition binding, % of control
FLT4, sequence (P35916 whole entry): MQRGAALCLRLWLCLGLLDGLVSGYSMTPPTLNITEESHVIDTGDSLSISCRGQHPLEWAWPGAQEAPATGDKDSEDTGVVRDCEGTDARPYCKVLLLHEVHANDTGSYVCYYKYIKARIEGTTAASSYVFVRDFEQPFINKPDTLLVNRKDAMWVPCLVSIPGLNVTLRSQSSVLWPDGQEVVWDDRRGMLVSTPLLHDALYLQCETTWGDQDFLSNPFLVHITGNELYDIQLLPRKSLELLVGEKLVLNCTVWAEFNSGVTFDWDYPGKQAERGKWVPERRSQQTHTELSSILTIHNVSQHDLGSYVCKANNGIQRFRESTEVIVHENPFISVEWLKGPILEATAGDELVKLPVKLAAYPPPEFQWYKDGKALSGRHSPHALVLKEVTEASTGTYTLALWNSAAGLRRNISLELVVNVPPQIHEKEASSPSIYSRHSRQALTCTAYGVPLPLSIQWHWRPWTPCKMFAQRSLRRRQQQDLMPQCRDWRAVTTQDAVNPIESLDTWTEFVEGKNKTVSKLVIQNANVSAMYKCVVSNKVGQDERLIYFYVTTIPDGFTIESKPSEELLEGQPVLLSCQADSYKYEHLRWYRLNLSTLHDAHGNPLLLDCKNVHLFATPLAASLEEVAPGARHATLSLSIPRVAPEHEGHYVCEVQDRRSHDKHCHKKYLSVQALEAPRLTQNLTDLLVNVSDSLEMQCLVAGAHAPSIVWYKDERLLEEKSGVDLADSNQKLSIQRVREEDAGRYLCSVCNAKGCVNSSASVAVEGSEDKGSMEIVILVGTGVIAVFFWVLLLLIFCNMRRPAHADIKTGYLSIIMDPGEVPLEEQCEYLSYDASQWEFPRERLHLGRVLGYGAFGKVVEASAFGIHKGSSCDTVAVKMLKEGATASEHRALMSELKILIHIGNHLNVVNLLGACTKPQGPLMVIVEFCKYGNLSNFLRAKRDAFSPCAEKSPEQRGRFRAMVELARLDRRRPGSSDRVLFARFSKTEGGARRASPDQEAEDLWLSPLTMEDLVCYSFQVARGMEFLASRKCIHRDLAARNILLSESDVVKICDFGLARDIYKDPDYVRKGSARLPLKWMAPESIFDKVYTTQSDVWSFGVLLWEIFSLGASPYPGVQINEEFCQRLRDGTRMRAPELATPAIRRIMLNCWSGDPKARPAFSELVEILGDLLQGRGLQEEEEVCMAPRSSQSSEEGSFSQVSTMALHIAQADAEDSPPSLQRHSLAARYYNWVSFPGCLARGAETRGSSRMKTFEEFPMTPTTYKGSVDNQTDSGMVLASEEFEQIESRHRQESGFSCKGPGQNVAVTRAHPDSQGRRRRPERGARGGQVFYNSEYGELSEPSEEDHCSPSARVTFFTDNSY
Method in brief: as §1

HIPK1 = HIPK1 (Homo sapiens, UniProt Q86Z02); conditions: competition binding, % of control
HIPK1, sequence (Q86Z02 whole entry): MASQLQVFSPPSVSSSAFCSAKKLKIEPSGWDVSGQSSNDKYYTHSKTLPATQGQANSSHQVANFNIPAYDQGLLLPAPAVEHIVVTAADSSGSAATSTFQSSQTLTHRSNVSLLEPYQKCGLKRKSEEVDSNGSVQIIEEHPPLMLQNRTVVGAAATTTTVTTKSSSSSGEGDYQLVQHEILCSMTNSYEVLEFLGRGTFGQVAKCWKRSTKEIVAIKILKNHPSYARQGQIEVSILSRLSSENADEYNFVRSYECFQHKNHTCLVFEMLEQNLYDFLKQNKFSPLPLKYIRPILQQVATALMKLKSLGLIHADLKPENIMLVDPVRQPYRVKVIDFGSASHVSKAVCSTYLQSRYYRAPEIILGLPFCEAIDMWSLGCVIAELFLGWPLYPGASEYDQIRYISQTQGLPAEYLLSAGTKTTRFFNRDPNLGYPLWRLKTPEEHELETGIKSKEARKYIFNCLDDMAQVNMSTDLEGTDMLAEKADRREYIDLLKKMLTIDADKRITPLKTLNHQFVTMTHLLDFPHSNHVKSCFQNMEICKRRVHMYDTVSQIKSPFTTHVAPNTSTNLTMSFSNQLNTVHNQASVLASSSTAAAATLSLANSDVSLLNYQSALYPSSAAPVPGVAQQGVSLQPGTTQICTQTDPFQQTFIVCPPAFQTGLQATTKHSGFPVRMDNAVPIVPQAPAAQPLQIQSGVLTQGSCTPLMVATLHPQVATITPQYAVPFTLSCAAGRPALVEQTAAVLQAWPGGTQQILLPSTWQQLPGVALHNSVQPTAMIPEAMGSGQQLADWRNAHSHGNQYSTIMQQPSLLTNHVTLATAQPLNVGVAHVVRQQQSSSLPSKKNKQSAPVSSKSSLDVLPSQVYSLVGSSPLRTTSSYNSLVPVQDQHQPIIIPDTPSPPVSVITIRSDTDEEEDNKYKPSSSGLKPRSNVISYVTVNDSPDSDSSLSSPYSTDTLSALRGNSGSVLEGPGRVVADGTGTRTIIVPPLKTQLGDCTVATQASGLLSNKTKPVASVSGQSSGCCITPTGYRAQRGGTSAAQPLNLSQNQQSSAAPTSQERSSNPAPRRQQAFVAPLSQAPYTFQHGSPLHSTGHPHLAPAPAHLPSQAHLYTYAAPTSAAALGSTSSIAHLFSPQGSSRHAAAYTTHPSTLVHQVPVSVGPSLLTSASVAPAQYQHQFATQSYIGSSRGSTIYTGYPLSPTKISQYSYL
Method in brief: as §1

HPK1 = molecular target: T5, HPK1 (Homo sapiens, UniProt Q92918); conditions: competition binding, % of control; read-out: Percent Control (100 uM Levosimendan)
T5 construct: gene MAP4K1
T5 sequence (Q92918 whole entry): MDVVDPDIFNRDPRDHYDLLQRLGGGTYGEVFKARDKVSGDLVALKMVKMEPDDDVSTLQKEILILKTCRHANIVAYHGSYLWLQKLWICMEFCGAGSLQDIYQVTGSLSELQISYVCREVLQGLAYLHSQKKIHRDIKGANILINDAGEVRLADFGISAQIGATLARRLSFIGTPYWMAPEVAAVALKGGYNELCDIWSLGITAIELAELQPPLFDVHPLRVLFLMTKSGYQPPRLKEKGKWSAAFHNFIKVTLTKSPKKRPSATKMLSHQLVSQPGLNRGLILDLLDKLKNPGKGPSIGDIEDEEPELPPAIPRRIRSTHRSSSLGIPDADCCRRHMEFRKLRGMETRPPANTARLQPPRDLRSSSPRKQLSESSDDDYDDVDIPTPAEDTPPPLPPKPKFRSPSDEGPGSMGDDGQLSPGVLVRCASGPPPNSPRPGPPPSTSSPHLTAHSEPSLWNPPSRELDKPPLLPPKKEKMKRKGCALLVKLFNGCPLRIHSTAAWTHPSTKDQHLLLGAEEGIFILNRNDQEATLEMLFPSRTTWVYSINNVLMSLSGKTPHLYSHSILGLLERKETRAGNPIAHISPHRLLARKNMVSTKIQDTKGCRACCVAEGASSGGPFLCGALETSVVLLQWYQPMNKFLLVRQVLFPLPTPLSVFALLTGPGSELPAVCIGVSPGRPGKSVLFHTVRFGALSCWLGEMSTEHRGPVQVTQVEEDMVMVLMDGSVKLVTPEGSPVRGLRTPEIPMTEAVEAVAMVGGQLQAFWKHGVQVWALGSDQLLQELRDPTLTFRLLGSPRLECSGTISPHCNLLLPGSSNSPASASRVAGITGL
Method in brief: as §1

LRRK2(G2019S) = LRRK2(G2019S) (Homo sapiens, UniProt Q5S007, G2019S); conditions: competition binding, % of control; read-out: Percent Control (100 uM Levosimendan)
Method in brief: as §1

MARK2 = MARK2 (Homo sapiens, UniProt Q7KZI7); conditions: competition binding, % of control; read-out: Percent Control (100 uM Levosimendan)
Method in brief: as §1

MUSK = MUSK (Homo sapiens, UniProt O15146); conditions: competition binding, % of control; read-out: Percent Control (100 uM Levosimendan)
Method in brief: as §1

TSSK1B = TSSK1B (Homo sapiens, UniProt Q9BXA7); conditions: competition binding, % of control; read-out: Percent Control (100 uM Levosimendan)
Method in brief: as §1

[1] = molecular target: T6, TYK2(JH2domain-pseudokinase) (Homo sapiens, UniProt P29597); conditions: competition binding, % of control
T6 construct: JH2domain-pseudokinase
T6 sequence (P29597 whole entry): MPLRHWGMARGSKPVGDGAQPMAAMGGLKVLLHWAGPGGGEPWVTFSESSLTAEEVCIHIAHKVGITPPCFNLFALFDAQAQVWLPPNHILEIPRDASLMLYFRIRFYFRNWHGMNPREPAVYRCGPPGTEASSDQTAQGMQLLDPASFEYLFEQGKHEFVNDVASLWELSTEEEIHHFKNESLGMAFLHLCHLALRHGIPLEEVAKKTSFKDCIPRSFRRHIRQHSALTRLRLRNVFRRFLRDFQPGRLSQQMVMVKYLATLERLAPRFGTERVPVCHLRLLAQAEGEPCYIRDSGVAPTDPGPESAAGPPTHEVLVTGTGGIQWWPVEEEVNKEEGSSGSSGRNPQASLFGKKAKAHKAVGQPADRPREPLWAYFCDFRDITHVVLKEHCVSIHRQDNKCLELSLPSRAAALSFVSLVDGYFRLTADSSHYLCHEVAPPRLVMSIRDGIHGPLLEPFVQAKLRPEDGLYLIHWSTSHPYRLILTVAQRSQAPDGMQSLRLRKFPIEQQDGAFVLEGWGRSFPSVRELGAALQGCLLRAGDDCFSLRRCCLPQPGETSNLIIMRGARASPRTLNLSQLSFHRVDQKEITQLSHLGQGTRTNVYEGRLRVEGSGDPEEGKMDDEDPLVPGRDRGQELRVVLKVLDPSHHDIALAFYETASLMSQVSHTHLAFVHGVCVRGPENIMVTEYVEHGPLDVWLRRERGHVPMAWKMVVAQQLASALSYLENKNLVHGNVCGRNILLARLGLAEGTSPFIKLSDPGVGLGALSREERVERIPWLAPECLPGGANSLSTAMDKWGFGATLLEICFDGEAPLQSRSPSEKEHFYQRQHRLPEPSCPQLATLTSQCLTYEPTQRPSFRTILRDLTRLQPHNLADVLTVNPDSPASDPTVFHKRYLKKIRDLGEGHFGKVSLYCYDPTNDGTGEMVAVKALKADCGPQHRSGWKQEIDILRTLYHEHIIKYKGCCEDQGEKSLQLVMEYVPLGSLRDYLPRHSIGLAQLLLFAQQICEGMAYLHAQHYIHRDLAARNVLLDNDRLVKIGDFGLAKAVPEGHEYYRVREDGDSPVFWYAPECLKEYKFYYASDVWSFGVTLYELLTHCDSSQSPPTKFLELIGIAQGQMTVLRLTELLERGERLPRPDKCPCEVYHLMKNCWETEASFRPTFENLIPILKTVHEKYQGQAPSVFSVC
Method in brief: as §1

TYRO3 = TYRO3 (Homo sapiens, UniProt Q06418); conditions: competition binding, % of control; read-out: Percent Control (100 uM Levosimendan)
Method in brief: as §1

p38-alpha = molecular target: T7, p38-alpha (Homo sapiens, UniProt Q16539); conditions: competition binding, % of control; read-out: Percent Control (100 uM Levosimendan)
T7 construct: gene MAPK14
Method in brief: as §1

[2] = read-out: Percent Control (10 uM Levosimendan)
[3] = read-out: Percent Control (100 uM Levosimendan)

- remaining binding at 100 µM (ADCK4): 100%
- remaining binding at 100 µM (ALK): 76%
- remaining binding at 100 µM (ARK5): 100%
- remaining binding at 100 µM (ASK1): 100%
- remaining binding at 10 µM (BMPR1B; [2]): 82%
- remaining binding at 100 µM (BMPR1B; [3]): 36%
- remaining binding at 100 µM (BMPR2): 100%
- remaining binding at 100 µM (CAMKK2): 54%
- remaining binding at 100 µM (CDC2L1): 100%
- remaining binding at 100 µM (EGFR(E746-A750del)): 63%
- remaining binding at 10 µM (FLT4; [2]): 100%
- remaining binding at 100 µM (FLT4; [3]): 49%
- remaining binding at 10 µM (HIPK1; [2]): 95%
- remaining binding at 100 µM (HIPK1; [3]): 20%
- remaining binding at 100 µM (HPK1): 95%
- remaining binding at 100 µM (LRRK2(G2019S)): 100%
- remaining binding at 100 µM (MARK2): 95%
- remaining binding at 100 µM (MUSK): 100%
- remaining binding at 100 µM (TSSK1B): 85%
- remaining binding at 10 µM [1, 2]: 100%
- remaining binding at 100 µM [1, 3]: 11%
- remaining binding at 100 µM (TYRO3): 94%
- remaining binding at 100 µM (p38-alpha): 97%
Structure (SMILES): C[C@@H]1CC(=O)NN=C1c1ccc(NN=C(C#N)C#N)cc1 [levosimendan]
